Test results reported in US20260263573A1, “Tumor Immunotherapy” (PingShan Translational Medicine Center, Shenzhen Bay …, priority 2022, published 2026).

System: B16-OVA melanoma
Experiment: Lung metastasis model
Type: in vivo, mice
Conditions: day 20 after tail vein injection of B16-OVA
Protocol: Furthermore, a lung metastasis model was selected to evaluate the prevention of lung colonization of melanoma with nanocomposites (FIG. 21a). The administration was similar to that of the tumor model, except that 5×10^5 B16-OVA cells per mouse were injected via tail vein 7 days after the end of the last administration. The mice were dissected on day 20 after injection, the lungs of the mice were removed, and the lungs were washed with Fekete's eluent (70 mL of alcohol, 10 mL of formaldehyde, 5 mL of glacial acetic acid, 15 mL of water). After decoloration, lung tumor nodules were counted. Finally, all tissues were sent to Univ company for tissue section and H&E staining analysis.

## Ac-WMβASIINFEKL (WMXSIINFEKL; N-terminal acetyl; beta-alanine; N-terminal Acetylation and Xaa represents a ??-alanine isomer of alanine at the 3AA position; (3)..(3) Xaa is ??-alanine (beta-alanine), an isomer of Alanine) [OVA]
  H&E staining of lung tissue: melanoma cell infestation: lung cells infected with melanoma cells were also found
